Reference: patent US20150125893A1, “TRANSPORTER BIOSENSORS” (Carnegie Institute of Washington, priority 2013, published 2015)

What was measured:
OzTrac-MSL10 = OzTrac-MSL10 FRET osmosensor expressed in yeast cells, response to osmolytes; type: cell-based, Arabidopsis thaliana; settings: for FRET emission ratio: addition of 1M osmolyte; for FRET emission ratio / FRET response to osmolyte: yeast cells; for FRET response to osmolyte: hyper-osmotic stress, NaCl at 1M
Text: Fusion proteins comprising the mechanisensitive channel small conductance-like 10 (AtMSL10) were constructed, potentially creating an osmosensor. […] This t9AFP-AtMSL10-t7TFPt9 protein is named as OzTrac-MSL10. […] Upon treatment of 1 M NaCl, which induces hyper-osmotic stress, AtMSL10 will undergo a conformational change into the closed state which causes the FRET pairs to come closer, resulting in a higher FRET.
The OzTrac-MSL10 FRET sensor can detect a range of osmolarity concentration changes. […] The calculation of the dissociation constant is around 0.5 M for NaCl and KCl, and around 1M for […] and […].

[1] = system: NRT1.1 T101A mutant fusion protein; assay: Nitrate sensor fluorescence response in yeast, NRT1.1 T101A low affinity mutant fusion protein; type: cell-based, Arabidopsis thaliana
Experimental: Yeast strains used in this study were BJ5465 [MATa, ura3-52, trp1, leu2Δ1, his3Δ200, pep4::HIS3, prb1Δ1.6R, cant GAL+] obtained from Yeast Genetic Stock Center (University of California, Berkeley, Calif.). Yeast was transformed using the lithium acetate method and selected on solid YNB (minimal yeast medium without nitrogen; Difco) supplemented with 2% glucose and -Ura DropOut (Clontech). Single colonies were grown in 5 mL liquid YNB supplemented with 2% glucose and -Ura DropOut under agitation (220 rpm) at 30° C. until OD600 nm˜0.8 was reached. The liquid cultures were subcultured by diluted to OD600 nm 0.01 in the same liquid medium and conditions at 30° C. until OD600 nm 0.2 was reached. […] Fluorescence was measured by a fluorescence plate reader (M1000, TECAN), in bottom reading mode using a 7.5 nm bandwidth for both excitation and emission. To measure fluorescence response to substrate addition, 100 μL of substrate (dissolved in MES buffer as 500% stock solution) were added to 100 μL of cells in a 96-well plate (Greiner). Fluorescence from cultures harboring yeast expression vectors pDRFlip30, 39, and 42 was measured as emission at λem=470-570 nm using excitation at λexc=428 nm and fluorescence using yeast expression vector pDRFlip34 and 35 was measured as emission at λem=470-570 nm using excitation at λexc=440 nm.

[2] = system: pDRFlip302 (NRT1.1 with AFPt9 and mCerulean)
Text: (§1) All transporter and sensor constructs were inserted in the yeast expression vector pDRFlip30, 34, 35, 39, 42-GW. The details of the vectors are as follows: pDRFlip30 using pair of N-terminal fluorescent protein Aphordite t9 (AFPt9), 9 amino acids truncated of C-term of AFP, and C-terminal fluorescent protein monomeric Cerulean (mCer); pDRFlip 39 using pair of N-terminally fused fluorescent protein enhanced dimer Aphrodite t9 (edAFPt9) and C-terminal fluorescent protein enhanced dimer, 7 amino acids and 9 amino acids truncated of N-term and C-term of eCyan (t7.ed.eCFPt9), respectively; pDRFlip 42 using pair of N-terminal fluorescent protein Citrine and C-terminal fluorescent protein mCer; pDRFlip 34 using pair of N-terminal fluorescent protein AFPt9 and C-terminal fluorescent protein t7.Teal.t9 (t7.TFP.t9), and pDRFlip 35 using pair of N-terminal fluorescent protein AFPt9 and C-terminal fluorescent protein mTFPt9. All vectors contained […] replication origin, GATEWAY™ cassette-attR1-CmR-ccdB gene-attR2 sequence, which is between the pair of fluorescent proteins, a PMA1 promoter fragment, an ADH terminator, different pairs of fluorescent proteins, and the URA cassette for selection in yeast. The full length ORF of NRT1.1 and different mutants of NRT1.1, such as T101A, T101D, P492L from Arabidopsis (At1g12110) in TOPO GATEWAY™ entry vector were used to prepare the nitrate sensors of the present invention. The yeast vector harboring the constructs was then created by the GATEWAY™ LR reaction between different forms of pTOPO-NRT and different pDRFlip-GWs, following manufacturer's instructions..
(§2) Yeast strains used in this study were BJ5465 [MATa, ura3-52, trp1, leu2Δ1, his3Δ200, pep4::HIS3, prb1Δ1.6R, cant GAL+] obtained from Yeast Genetic Stock Center (University of California, Berkeley, Calif.). Yeast was transformed using the lithium acetate method and selected on solid YNB (minimal yeast medium without nitrogen; Difco) supplemented with 2% glucose and -Ura DropOut (Clontech).

[3] = system: CHL1 nitrate transporter (AFPt9 in central loop, Teal-t9 in loop between helices 10 and 11)
Text: as §1, §2

[4] = system: CHL1 nitrate transporter (Aphrodite-t9 N-terminus, Teal-t9 C-terminus)
Text: as §1, §2

[Cl-].[K+] [KCl, potassium chloride]
FRET emission ratio (OzTrac-MSL10): higher FRET emission ratio | FRET response to osmolyte (OzTrac-MSL10): increased the FRET

O=[N+]([O-])[O-].[K+] [KNO3]
sensor response ([1]; high levels of KNO3): only responds to addition of high levels | sensor response ([1]; low levels of KNO3): does not respond

O=[N+]([O-])O [nitrate]
change in FRET on addition of nitrate [2]: does not induce a change in FRET | change in FRET on addition of nitrate [3]: does not induce a change in FRET | change in FRET on addition of nitrate [4]: does not induce a change in FRET

OC[C@@H](O)[C@@H](O)[C@H](O)[C@@H](O)CO [sorbitol]
FRET emission ratio (OzTrac-MSL10): higher FRET emission ratio | FRET response to osmolyte (OzTrac-MSL10): increased the FRET

OCC(O)CO [glycerol]
FRET emission ratio (OzTrac-MSL10): higher FRET emission ratio | FRET response to osmolyte (OzTrac-MSL10): increased the FRET

[Cl-].[Na+] [NaCl, sodium chloride]
emission spectrum change (OzTrac-MSL10; 1M NaCl, excitation at 440 nm): decrease in fluorescence intensity of donor and increase of acceptor | FRET emission ratio (OzTrac-MSL10): higher FRET emission ratio | FRET response to osmolyte (OzTrac-MSL10): dramatic FRET change | FRET change with serial concentrations (OzTrac-MSL10; serial NaCl concentrations (mM), excitation at 440 nm): concentration-dependent FRET changes
